Molecules are shown by their SMILES.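 Values below derive from 48-hour exposures of cells grown in 96-well plates, with endpoints linearly interpolated between the two concentrations bracketing the appropriate inhibition level. TGI denotes the concentration required for complete inhibition of growth.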

The record followed here is PubChem BioAssay (NCI).

The first experiment concerns SK-MEL-28 melanoma. Kind of experiment: growth of human tumour cells (NCI), 48 h.
`CN(C)c1ccc(/C=C(\NC(=O)c2ccccc2)c2nc3ncncc3[nH]2)cc1` registered a TGI greater than 100 µM.

Another experiment concerns SK-MEL-5 melanoma. Kind of experiment: growth of human tumour cells (NCI), 48 h.
For `CCOC(=O)CC(=O)ON(C)C(C)=O`, the TGI was greater than 100 µM.
With `CC(C)OP(=O)(OC(C)C)C(=NCCN=C(NNc1ccc([N+](=O)[O-])cc1)P(=O)(OC(C)C)OC(C)C)NNc1ccc([N+](=O)[O-])cc1`, the TGI was greater than 100 µM.
Compound `CN(C)c1ccc(/C=C(\NC(=O)c2ccccc2)c2nc3ncncc3[nH]2)cc1` showed a TGI greater than 100 µM.

Another experiment deals with SK-OV-3 ovarian. The experiment is described as follows: growth of human tumour cells (NCI), 48 h.
For `CCOC(=O)CC(=O)ON(C)C(C)=O`, the TGI was greater than 100 µM.
`Cn1c2ccccc2c2cc(-c3ccccc3)c3c(c21)C(=O)c1ccccc1C3=O` had a TGI greater than 100 µM.
The compound `CN(C)c1ccc(/C=C(\NC(=O)c2ccccc2)c2nc3ncncc3[nH]2)cc1` registered a TGI greater than 100 µM.

The next experiment concerns SN12C renal. The experiment is described as follows: growth of human tumour cells (NCI), 48 h.
For `CCOC(=O)CC(=O)ON(C)C(C)=O`, the TGI was greater than 100 µM.
The same measure, in the same setting: the figure for `CC(C)OP(=O)(OC(C)C)C(=NCCN=C(NNc1ccc([N+](=O)[O-])cc1)P(=O)(OC(C)C)OC(C)C)NNc1ccc([N+](=O)[O-])cc1` is greater than 100 µM; for `Cn1c2ccccc2c2cc(-c3ccccc3)c3c(c21)C(=O)c1ccccc1C3=O` it is greater than 100 µM.
With `CN(C)c1ccc(/C=C(\NC(=O)c2ccccc2)c2nc3ncncc3[nH]2)cc1`, the TGI is greater than 100 µM.

Another experiment deals with SNB-19 CNS. Kind of experiment: growth of human tumour cells (NCI), 48 h.
For `CCOC(=O)CC(=O)ON(C)C(C)=O`, the TGI was greater than 100 µM.
In turn, `CC(C)OP(=O)(OC(C)C)C(=NCCN=C(NNc1ccc([N+](=O)[O-])cc1)P(=O)(OC(C)C)OC(C)C)NNc1ccc([N+](=O)[O-])cc1` showed a TGI greater than 100 µM.
As for `Cn1c2ccccc2c2cc(-c3ccccc3)c3c(c21)C(=O)c1ccccc1C3=O`, the TGI is greater than 100 µM.
On to `CN(C)c1ccc(/C=C(\NC(=O)c2ccccc2)c2nc3ncncc3[nH]2)cc1`, for which the TGI is greater than 100 µM.

In the next experiment the test system is SNB-75 CNS. The experiment is described as follows: growth of human tumour cells (NCI), 48 h.
In turn, `CC(C)OP(=O)(OC(C)C)C(=NCCN=C(NNc1ccc([N+](=O)[O-])cc1)P(=O)(OC(C)C)OC(C)C)NNc1ccc([N+](=O)[O-])cc1` had a TGI greater than 100 µM.
The compound `Cn1c2ccccc2c2cc(-c3ccccc3)c3c(c21)C(=O)c1ccccc1C3=O` showed a TGI greater than 100 µM.

The next experiment has as its system SNB-78 CNS. The experiment is described as follows: growth of human tumour cells (NCI), 48 h.
As to `CCOC(=O)CC(=O)ON(C)C(C)=O`, the TGI was greater than 100 µM.
The compound `Cn1c2ccccc2c2cc(-c3ccccc3)c3c(c21)C(=O)c1ccccc1C3=O` returned a TGI of 54.3 µM.
In the case of `CN(C)c1ccc(/C=C(\NC(=O)c2ccccc2)c2nc3ncncc3[nH]2)cc1`, the TGI was greater than 100 µM.

In the next experiment the test system is SR leukemia. The experiment is described as follows: growth of human tumour cells (NCI), 48 h.
The compound `CCOC(=O)CC(=O)ON(C)C(C)=O` had a TGI greater than 100 µM.
`CC(C)OP(=O)(OC(C)C)C(=NCCN=C(NNc1ccc([N+](=O)[O-])cc1)P(=O)(OC(C)C)OC(C)C)NNc1ccc([N+](=O)[O-])cc1`: the TGI was greater than 100 µM.
`Cn1c2ccccc2c2cc(-c3ccccc3)c3c(c21)C(=O)c1ccccc1C3=O` yielded a TGI of 31.4 µM.
In turn, `CN(C)c1ccc(/C=C(\NC(=O)c2ccccc2)c2nc3ncncc3[nH]2)cc1` had a TGI greater than 100 µM.

Another experiment has as its system SW-620 colon. The experiment is described as follows: growth of human tumour cells (NCI), 48 h.
Regarding `CCOC(=O)CC(=O)ON(C)C(C)=O`, the TGI was greater than 100 µM.
`CC(C)OP(=O)(OC(C)C)C(=NCCN=C(NNc1ccc([N+](=O)[O-])cc1)P(=O)(OC(C)C)OC(C)C)NNc1ccc([N+](=O)[O-])cc1` returned a TGI greater than 100 µM.
Take `Cn1c2ccccc2c2cc(-c3ccccc3)c3c(c21)C(=O)c1ccccc1C3=O`: the TGI worked out at 66.5 µM.
`CN(C)c1ccc(/C=C(\NC(=O)c2ccccc2)c2nc3ncncc3[nH]2)cc1` came in with a TGI greater than 100 µM.

Another experiment concerns TK-10 renal. The experiment is described as follows: growth of human tumour cells (NCI), 48 h.
The compound `CCOC(=O)CC(=O)ON(C)C(C)=O` registered a TGI greater than 100 µM.
The same measure, in the same setting: the figure for `CC(C)OP(=O)(OC(C)C)C(=NCCN=C(NNc1ccc([N+](=O)[O-])cc1)P(=O)(OC(C)C)OC(C)C)NNc1ccc([N+](=O)[O-])cc1` is greater than 100 µM.
Consider `Cn1c2ccccc2c2cc(-c3ccccc3)c3c(c21)C(=O)c1ccccc1C3=O`, for which the TGI was greater than 100 µM.
`CN(C)c1ccc(/C=C(\NC(=O)c2ccccc2)c2nc3ncncc3[nH]2)cc1` returned a TGI greater than 100 µM.

The next experiment has as its system U251 CNS. The experiment is described as follows: growth of human tumour cells (NCI), 48 h.
`CCOC(=O)CC(=O)ON(C)C(C)=O` yielded a TGI greater than 100 µM.
`CC(C)OP(=O)(OC(C)C)C(=NCCN=C(NNc1ccc([N+](=O)[O-])cc1)P(=O)(OC(C)C)OC(C)C)NNc1ccc([N+](=O)[O-])cc1` registered a TGI of 91.2 µM.
With `CN(C)c1ccc(/C=C(\NC(=O)c2ccccc2)c2nc3ncncc3[nH]2)cc1`, the TGI is greater than 100 µM.

A further experiment has as its system UACC-257 melanoma. Kind of experiment: growth of human tumour cells (NCI), 48 h.
Compound `CCOC(=O)CC(=O)ON(C)C(C)=O` came in with a TGI greater than 100 µM.
On the same count and under the same terms, then `CC(C)OP(=O)(OC(C)C)C(=NCCN=C(NNc1ccc([N+](=O)[O-])cc1)P(=O)(OC(C)C)OC(C)C)NNc1ccc([N+](=O)[O-])cc1`, with greater than 100 µM; and `Cn1c2ccccc2c2cc(-c3ccccc3)c3c(c21)C(=O)c1ccccc1C3=O`, with 42.9 µM.

In another experiment the test system is UACC-62 melanoma. Kind of experiment: growth of human tumour cells (NCI), 48 h.
`CCOC(=O)CC(=O)ON(C)C(C)=O` showed a TGI greater than 100 µM.
Compound `CC(C)OP(=O)(OC(C)C)C(=NCCN=C(NNc1ccc([N+](=O)[O-])cc1)P(=O)(OC(C)C)OC(C)C)NNc1ccc([N+](=O)[O-])cc1` gave a TGI of 36.7 µM.
Regarding `Cn1c2ccccc2c2cc(-c3ccccc3)c3c(c21)C(=O)c1ccccc1C3=O`, the TGI worked out at 30.1 µM.
The same measure, in the same setting: then `CN(C)c1ccc(/C=C(\NC(=O)c2ccccc2)c2nc3ncncc3[nH]2)cc1`, with greater than 100 µM.

For the next experiment, the system named is UO-31 renal. Kind of experiment: growth of human tumour cells (NCI), 48 h.
`CCOC(=O)CC(=O)ON(C)C(C)=O` registered a TGI greater than 100 µM.
As for `CC(C)OP(=O)(OC(C)C)C(=NCCN=C(NNc1ccc([N+](=O)[O-])cc1)P(=O)(OC(C)C)OC(C)C)NNc1ccc([N+](=O)[O-])cc1`, the TGI was greater than 100 µM.
On the same count and under the same terms, the figure for `Cn1c2ccccc2c2cc(-c3ccccc3)c3c(c21)C(=O)c1ccccc1C3=O` is 35.4 µM; for `CN(C)c1ccc(/C=C(\NC(=O)c2ccccc2)c2nc3ncncc3[nH]2)cc1` it is greater than 100 µM.

The subject of another experiment is XF 498 CNS. The experiment is described as follows: growth of human tumour cells (NCI), 48 h.
Take `CCOC(=O)CC(=O)ON(C)C(C)=O`: the TGI is greater than 100 µM.
On the same count and under the same terms, the figure for `CC(C)OP(=O)(OC(C)C)C(=NCCN=C(NNc1ccc([N+](=O)[O-])cc1)P(=O)(OC(C)C)OC(C)C)NNc1ccc([N+](=O)[O-])cc1` is 9.04 µM; for `Cn1c2ccccc2c2cc(-c3ccccc3)c3c(c21)C(=O)c1ccccc1C3=O` it is 39.7 µM.
Same read-out and setting: the figure for `CN(C)c1ccc(/C=C(\NC(=O)c2ccccc2)c2nc3ncncc3[nH]2)cc1` is greater than 100 µM.
